Drawing on patent US12479847B2 (DANA-FARBER CANCER INSTITUTE, INC., priority 2019, dated 2025), this text covers remaining binding for 3 molecules.

Assay in all cases: KINOMEscan (ScanMAX) kinase profiling
Assay type in all cases: binding

In assay [1] the target is T1, panel of 468 kinases (Homo sapiens, UniProt Q9Y463).
T1 construct: purchased KINOMEscan (ScanMAX) service
The conditions noted are these: DYRK1B; 1 μM; read-out: % control.

The target of assay [2] is T2, panel of 468 kinases (Homo sapiens, UniProt P53667).
T2 construct: purchased KINOMEscan (ScanMAX) service
The conditions noted are these: LIMK1; 1 μM; read-out: % control.

Assay [3] concerns the target T3, panel of 468 kinases (Homo sapiens, UniProt Q2M2I8).
T3 construct: purchased KINOMEscan (ScanMAX) service
The conditions noted are these: AAK1; 1 μM; read-out: % control.

The target of assay [4] is T4, panel of 468 kinases (Homo sapiens, UniProt Q9UEE5).
T4 construct: purchased KINOMEscan (ScanMAX) service
T4 sequence (Q9UEE5 1-414): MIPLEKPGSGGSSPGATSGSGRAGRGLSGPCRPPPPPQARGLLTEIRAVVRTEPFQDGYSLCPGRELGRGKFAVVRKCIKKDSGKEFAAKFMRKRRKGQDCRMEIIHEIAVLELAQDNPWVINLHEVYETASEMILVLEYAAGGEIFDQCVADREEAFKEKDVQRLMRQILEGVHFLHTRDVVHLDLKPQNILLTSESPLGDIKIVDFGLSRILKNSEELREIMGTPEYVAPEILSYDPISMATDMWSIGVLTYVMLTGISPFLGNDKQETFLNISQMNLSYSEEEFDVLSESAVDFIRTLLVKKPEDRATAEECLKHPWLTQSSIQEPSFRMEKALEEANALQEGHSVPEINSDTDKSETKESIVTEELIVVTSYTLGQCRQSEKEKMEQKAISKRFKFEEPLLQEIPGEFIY
The following applies: DRAK1; 1 μM; read-out: % control.

The target in assay [5] is T5, panel of 468 kinases (Homo sapiens, UniProt Q9UK32).
T5 construct: purchased KINOMEscan (ScanMAX) service
The following applies: 1 μM, read-out: % control.

For assay [6], the target named is T6, panel of 468 kinases (Homo sapiens, UniProt Q15569).
T6 construct: purchased KINOMEscan (ScanMAX) service
The conditions noted are these: TESK1; 1 μM; read-out: % control.

In assay [7] the target is T7, panel of 468 kinases (Homo sapiens, UniProt P42681).
T7 construct: purchased KINOMEscan (ScanMAX) service
T7 sequence (P42681 1-527): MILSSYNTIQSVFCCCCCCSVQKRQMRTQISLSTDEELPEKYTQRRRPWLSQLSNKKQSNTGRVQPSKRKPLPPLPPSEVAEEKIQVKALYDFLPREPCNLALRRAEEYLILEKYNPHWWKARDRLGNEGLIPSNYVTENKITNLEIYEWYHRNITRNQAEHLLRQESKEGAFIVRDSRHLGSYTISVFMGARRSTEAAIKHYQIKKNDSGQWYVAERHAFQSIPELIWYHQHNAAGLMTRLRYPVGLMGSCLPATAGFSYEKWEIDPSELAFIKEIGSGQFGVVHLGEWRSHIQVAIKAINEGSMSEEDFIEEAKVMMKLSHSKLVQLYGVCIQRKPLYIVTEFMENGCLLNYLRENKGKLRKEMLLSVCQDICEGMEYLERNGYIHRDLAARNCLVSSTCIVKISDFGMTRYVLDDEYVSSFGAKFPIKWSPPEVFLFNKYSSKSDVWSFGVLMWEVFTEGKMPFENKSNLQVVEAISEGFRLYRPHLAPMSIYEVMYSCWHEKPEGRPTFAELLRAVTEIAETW
The following applies: TXK; 1 μM; read-out: % control.

Assay [8] addresses T8, panel of 468 kinases (Homo sapiens, UniProt P00519, M351T).
T8 construct: purchased KINOMEscan (ScanMAX) service
The following applies: ABL1(M351T)-phosphorylated; 1 μM; read-out: % control.

The target of assay [9] is T9, panel of 468 kinases (Homo sapiens, UniProt Q13164).
T9 construct: purchased KINOMEscan (ScanMAX) service
The conditions noted are these: ERK5; 1 μM; read-out: % control.

Assay [10] concerns the target T10, panel of 468 kinases (Homo sapiens, UniProt Q08345).
T10 construct: purchased KINOMEscan (ScanMAX) service
The conditions noted are these: DDR1; 1 μM; read-out: % control.

Assay [11] addresses T11, panel of 468 kinases (Homo sapiens, UniProt O95819).
T11 construct: purchased KINOMEscan (ScanMAX) service
The conditions noted are these: MAP4K4; 1 μM; read-out: % control.

In assay [12] the target is T12, panel of 468 kinases (Homo sapiens, UniProt Q99640).
T12 construct: purchased KINOMEscan (ScanMAX) service
T12 sequence (Q99640 1-499): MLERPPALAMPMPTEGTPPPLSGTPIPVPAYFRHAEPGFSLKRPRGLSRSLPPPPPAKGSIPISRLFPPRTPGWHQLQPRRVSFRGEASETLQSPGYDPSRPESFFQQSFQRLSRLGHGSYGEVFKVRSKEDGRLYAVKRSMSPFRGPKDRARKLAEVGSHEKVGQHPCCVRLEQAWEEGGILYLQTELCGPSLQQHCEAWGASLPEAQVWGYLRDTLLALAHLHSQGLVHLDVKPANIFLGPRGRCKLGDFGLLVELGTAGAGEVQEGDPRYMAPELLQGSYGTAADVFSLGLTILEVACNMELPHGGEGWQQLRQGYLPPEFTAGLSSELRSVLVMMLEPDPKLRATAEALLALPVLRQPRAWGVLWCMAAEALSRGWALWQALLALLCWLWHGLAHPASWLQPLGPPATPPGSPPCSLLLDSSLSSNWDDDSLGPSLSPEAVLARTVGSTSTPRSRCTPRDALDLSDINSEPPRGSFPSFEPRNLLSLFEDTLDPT
The conditions noted are these: PKMYT1; 1 μM; read-out: % control.

Assay [13] concerns the target T13, panel of 468 kinases (Homo sapiens, UniProt P42345).
T13 construct: purchased KINOMEscan (ScanMAX) service
The conditions noted are these: MTOR; 1 μM; read-out: % control.

In assay [14] the target is T14, panel of 468 kinases (Homo sapiens, UniProt P16591).
T14 construct: purchased KINOMEscan (ScanMAX) service
The conditions noted are these: FER; 1 μM; read-out: % control.

Like-named read-outs stand apart in the source and are kept apart here.

T9 sequence (Q13164 whole entry): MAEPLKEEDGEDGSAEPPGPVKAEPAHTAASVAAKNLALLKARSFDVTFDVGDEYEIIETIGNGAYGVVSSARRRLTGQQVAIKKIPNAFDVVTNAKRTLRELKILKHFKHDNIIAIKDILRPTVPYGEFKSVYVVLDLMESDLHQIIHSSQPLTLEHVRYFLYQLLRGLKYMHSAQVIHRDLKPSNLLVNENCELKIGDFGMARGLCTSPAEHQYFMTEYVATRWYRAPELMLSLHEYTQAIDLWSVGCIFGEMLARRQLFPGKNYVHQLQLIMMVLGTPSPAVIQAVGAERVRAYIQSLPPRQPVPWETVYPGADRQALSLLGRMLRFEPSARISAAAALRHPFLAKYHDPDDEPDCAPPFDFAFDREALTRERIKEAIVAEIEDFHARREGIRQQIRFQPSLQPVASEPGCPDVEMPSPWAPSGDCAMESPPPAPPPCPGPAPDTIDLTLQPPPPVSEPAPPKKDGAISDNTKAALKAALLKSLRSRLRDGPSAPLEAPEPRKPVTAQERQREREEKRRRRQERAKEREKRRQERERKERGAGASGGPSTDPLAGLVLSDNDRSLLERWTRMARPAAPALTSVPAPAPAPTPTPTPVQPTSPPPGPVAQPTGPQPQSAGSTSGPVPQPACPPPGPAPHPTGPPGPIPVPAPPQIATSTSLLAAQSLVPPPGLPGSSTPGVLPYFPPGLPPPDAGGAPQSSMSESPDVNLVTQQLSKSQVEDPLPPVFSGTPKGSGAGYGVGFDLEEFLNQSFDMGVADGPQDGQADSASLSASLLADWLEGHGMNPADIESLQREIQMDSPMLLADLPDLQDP
T11 sequence (O95819 whole entry): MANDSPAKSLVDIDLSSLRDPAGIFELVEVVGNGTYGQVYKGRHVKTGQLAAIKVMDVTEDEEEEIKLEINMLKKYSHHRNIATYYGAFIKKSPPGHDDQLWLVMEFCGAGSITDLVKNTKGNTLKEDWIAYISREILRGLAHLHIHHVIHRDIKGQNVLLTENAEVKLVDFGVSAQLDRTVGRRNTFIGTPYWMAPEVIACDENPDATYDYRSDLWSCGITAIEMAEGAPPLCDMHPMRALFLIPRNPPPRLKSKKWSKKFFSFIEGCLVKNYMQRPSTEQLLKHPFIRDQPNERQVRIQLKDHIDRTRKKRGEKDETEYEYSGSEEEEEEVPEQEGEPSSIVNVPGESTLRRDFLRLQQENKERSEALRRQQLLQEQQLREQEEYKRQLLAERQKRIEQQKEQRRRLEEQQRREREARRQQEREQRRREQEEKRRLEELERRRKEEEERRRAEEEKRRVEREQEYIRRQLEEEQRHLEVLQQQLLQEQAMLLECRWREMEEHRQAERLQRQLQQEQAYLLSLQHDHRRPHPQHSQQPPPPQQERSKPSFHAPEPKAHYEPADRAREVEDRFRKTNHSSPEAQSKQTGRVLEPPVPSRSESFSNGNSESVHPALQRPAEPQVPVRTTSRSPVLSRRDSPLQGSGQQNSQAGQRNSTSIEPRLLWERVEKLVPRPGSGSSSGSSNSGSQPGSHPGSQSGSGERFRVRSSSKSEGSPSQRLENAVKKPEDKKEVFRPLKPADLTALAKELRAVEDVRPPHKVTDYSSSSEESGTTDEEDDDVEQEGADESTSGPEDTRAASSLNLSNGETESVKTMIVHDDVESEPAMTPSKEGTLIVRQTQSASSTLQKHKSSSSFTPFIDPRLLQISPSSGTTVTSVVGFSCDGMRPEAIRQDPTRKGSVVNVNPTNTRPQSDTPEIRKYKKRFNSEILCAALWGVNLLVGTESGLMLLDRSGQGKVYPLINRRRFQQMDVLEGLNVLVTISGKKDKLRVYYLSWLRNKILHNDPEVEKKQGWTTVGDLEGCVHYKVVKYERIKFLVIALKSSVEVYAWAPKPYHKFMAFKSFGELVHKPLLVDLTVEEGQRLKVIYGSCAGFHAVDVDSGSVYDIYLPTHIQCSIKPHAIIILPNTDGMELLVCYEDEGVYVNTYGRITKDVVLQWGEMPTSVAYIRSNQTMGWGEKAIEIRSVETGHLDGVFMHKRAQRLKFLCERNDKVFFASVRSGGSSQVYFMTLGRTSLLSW
T1 sequence (Q9Y463 whole entry): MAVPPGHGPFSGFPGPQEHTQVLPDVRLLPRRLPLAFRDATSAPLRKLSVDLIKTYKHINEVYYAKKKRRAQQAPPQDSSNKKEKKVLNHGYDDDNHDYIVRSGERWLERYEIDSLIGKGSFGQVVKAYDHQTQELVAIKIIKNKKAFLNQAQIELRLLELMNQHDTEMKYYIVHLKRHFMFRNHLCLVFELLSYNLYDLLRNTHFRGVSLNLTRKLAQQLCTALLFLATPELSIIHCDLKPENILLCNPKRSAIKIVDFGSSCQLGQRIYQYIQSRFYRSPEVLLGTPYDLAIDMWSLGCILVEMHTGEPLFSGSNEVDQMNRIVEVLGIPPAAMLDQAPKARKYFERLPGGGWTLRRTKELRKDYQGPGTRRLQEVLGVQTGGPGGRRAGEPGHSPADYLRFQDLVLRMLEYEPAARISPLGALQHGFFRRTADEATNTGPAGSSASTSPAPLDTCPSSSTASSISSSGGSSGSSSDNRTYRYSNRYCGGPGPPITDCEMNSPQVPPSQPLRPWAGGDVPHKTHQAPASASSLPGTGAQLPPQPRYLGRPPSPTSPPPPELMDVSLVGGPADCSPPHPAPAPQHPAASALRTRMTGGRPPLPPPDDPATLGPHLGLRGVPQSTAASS
T6 sequence (Q15569 whole entry): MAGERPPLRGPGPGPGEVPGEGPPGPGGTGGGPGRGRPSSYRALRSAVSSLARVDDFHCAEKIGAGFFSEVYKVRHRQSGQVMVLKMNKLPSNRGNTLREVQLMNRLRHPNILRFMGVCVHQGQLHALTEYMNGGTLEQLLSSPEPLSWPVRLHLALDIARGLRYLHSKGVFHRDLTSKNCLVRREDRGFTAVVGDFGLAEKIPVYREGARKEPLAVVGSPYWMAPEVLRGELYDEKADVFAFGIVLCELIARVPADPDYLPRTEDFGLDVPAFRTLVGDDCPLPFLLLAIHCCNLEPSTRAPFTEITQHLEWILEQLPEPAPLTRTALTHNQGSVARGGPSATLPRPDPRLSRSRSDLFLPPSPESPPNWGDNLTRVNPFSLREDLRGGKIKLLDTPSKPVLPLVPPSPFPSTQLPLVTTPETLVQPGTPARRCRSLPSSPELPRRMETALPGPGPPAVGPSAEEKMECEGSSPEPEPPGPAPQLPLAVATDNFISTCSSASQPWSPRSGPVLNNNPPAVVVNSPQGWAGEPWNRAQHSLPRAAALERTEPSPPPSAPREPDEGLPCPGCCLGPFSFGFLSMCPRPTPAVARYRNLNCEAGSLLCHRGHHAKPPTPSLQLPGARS
T5 sequence (Q9UK32 whole entry): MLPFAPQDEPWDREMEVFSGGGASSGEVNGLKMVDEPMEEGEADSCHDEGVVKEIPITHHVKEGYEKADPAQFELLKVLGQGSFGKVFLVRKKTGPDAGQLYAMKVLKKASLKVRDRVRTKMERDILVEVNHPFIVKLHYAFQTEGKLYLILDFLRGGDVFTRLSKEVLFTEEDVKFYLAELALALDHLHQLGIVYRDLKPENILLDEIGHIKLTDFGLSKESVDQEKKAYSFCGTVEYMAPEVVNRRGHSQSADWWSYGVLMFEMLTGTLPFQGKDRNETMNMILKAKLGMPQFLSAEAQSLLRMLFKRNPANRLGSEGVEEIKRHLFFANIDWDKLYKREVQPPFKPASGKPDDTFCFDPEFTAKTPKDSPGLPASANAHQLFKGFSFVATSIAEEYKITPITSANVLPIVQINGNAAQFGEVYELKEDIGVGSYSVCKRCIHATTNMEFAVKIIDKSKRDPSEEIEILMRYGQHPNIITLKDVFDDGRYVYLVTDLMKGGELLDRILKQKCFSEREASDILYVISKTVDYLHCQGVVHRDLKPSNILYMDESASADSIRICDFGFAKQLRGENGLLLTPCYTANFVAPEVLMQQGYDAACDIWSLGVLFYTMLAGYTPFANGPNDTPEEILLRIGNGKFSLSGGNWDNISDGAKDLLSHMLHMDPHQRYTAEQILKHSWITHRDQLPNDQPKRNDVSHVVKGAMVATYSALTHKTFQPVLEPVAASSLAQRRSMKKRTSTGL
T3 sequence (Q2M2I8 whole entry): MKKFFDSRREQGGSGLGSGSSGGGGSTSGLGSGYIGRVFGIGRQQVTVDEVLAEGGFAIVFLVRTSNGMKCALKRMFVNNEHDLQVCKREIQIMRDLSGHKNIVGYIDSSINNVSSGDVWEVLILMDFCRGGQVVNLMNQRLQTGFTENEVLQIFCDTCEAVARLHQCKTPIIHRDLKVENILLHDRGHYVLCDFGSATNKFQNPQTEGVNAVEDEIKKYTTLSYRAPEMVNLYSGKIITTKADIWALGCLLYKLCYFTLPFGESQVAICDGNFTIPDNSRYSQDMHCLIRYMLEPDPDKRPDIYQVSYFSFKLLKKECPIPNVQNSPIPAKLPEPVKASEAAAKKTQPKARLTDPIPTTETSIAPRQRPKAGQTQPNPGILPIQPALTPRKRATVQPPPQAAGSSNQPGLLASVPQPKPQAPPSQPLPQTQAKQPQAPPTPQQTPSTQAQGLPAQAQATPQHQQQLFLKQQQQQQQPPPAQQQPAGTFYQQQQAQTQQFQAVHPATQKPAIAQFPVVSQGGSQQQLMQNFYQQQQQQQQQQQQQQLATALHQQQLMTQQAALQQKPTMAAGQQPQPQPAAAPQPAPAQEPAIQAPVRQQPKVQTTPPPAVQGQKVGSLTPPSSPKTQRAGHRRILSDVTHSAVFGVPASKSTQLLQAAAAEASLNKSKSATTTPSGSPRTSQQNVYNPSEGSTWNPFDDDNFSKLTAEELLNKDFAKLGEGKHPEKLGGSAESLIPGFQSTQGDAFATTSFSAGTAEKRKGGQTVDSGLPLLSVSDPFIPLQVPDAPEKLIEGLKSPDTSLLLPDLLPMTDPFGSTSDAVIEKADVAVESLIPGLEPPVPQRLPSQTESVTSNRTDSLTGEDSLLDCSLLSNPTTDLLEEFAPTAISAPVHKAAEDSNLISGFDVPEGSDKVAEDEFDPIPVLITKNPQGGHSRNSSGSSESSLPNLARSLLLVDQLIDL

In the case of `CNc1nc(Nc2ccc(S(=O)(=O)N3CCC(N4CCOCC4)CC3)cc2OC)nc2[nH]cc(Cl)c12` [Compound 12, 5-chloro-N2-(2-methoxy-4-((4-morpholinopiperidin-1-yl)sulfonyl)phenyl)-N4-methyl-7H-pyrrolo[2,3-d]pyrimidine-2,4-diamine], the remaining binding at 1 µM at panel of 468 kinases [1] is 6.1%; at panel of 468 kinases [2], 100%; on panel of 468 kinases [3], 100%; on panel of 468 kinases [4], 100%; at panel of 468 kinases [5] (RSK4(Kin.Dom.1-N-terminal)), 96%; on panel of 468 kinases [5] (RSK4(Kin.Dom.2-C-terminal)), 99%. Besides, the remaining binding at 1 µM on panel of 468 kinases [6] turned out to be 100%; at panel of 468 kinases [7], 100%; at panel of 468 kinases [8] it was 64%; on panel of 468 kinases [9] it was 53%; on panel of 468 kinases [10] it was 100%; at panel of 468 kinases [11], 95%. Further, the remaining binding at 1 µM is 100% on panel of 468 kinases [12], 67% on panel of 468 kinases [13] and 44% at panel of 468 kinases [14].
As to `CNc1nc(Nc2ccc(C(=O)N3CCC(N4CCOCC4)CC3)c3c2OCO3)nc2[nH]cc(Cl)c12` [Compound 75, (7-((5-chloro-4-(methylamino)-7H-pyrrolo[2,3-d]pyrimidin-2-yl)amino)benzo[d][1,3]dioxol-4-yl)(4-morpholinopiperidin-1-yl)methanone], the remaining binding at 1 µM at panel of 468 kinases [1] was determined as 0%; at panel of 468 kinases [2], 100%; on panel of 468 kinases [3] it was 13%; at panel of 468 kinases [4] it was 2.8%; at panel of 468 kinases [5] (RSK4(Kin.Dom.1-N-terminal)), 86%; at panel of 468 kinases [5] (RSK4(Kin.Dom.2-C-terminal)), 100%. Also, the remaining binding at 1 µM at panel of 468 kinases [6] was 100%; on panel of 468 kinases [7] it was 87%; on panel of 468 kinases [8], 59%; on panel of 468 kinases [9], 51%; at panel of 468 kinases [10], 100%; on panel of 468 kinases [11], 54%. Also, the remaining binding at 1 µM on panel of 468 kinases [12] stood at 100%; on panel of 468 kinases [13], 79%; at panel of 468 kinases [14] it was 56%.
Regarding `CNc1nc(Nc2ccc(P3(=O)CCN(C4CCOCC4)CC3)cc2OC)nc2[nH]cc(Cl)c12` [Compound 77, 4-(4-((5-chloro-4-(methylamino)-7H-pyrrolo[2,3-d]pyrimidin-2-yl)amino)-3-methoxyphenyl)-1-(tetrahydro-2H-pyran-4-yl)-1,4-azaphosphinane 4-oxide], the remaining binding at 1 µM on panel of 468 kinases [1] stood at 13%; at panel of 468 kinases [2] it was 100%; on panel of 468 kinases [3], 99%; on panel of 468 kinases [4], 95%; at panel of 468 kinases [5] (RSK4(Kin.Dom.1-N-terminal)), 92%; at panel of 468 kinases [5] (RSK4(Kin.Dom.2-C-terminal)) it was 77%. Also, the remaining binding at 1 µM on panel of 468 kinases [6] was determined as 100%; at panel of 468 kinases [7] it was 98%; at panel of 468 kinases [8], 70%; on panel of 468 kinases [9], 78%; at panel of 468 kinases [10] it was 100%; at panel of 468 kinases [11] it was 100%. Besides, the remaining binding at 1 µM at panel of 468 kinases [12] was found to be 100%; on panel of 468 kinases [13], 84%; on panel of 468 kinases [14], 20%.
